The values below come from patent US20240199635A1, “TETRAHYDROTHIENO PYRIDINE DERIVATIVES AS DDRS INHIBITORS” (CHIESI FARMACEUTICI S.P.A., priority 2021, published 2024).

Experiment [1] addresses T1, DDR2 (Homo sapiens (Human), UniProt Q16832). The experiment in a line: DDR2 cell based assay (phospho-ELISA in HEK293T-DDR2 recombinant cells). Particulars: DDR2 phosphorylation, Type II Collagen stimulation, potency class, read-out: IC50DDR2. Here is the method:
The inhibition of DDR2 phosphorylation by compounds was evaluated in HEK293T-DDR2 recombinant cells by phospho-ELISA assay. Briefly, HEK293T-DDR2 cells were seeded in poly-D-lysine-coated 24-well plates at a density of 250,000 cells/well and incubated for 1.5 hours at 37° C. and 5% CO2 in DMEM+10% FBS. After that, the medium was changed to serum-free DMEM and cells were incubated for 3 hours. Then. test compounds were added at different concentrations 30 minutes before stimulation with bovine Type II Collagen at […] for further 3 hours. For DDR2 phospho-ELISA assay (DuoSet IC Human Phospho-DDR2; R&D Systems), protein extracts were obtained by adding 60 μl/well of lysis buffer prepared according to the manufacturer's instructions. Protein concentration in the samples was determined by BCA assay and the levels of phospho-DDR2 were determined following R&D Systems indications. Raw data were normalized to maximal inhibition control (0% for normalization) and positive control (100% for normalization; cells treated with 20 μg/ml collagen II) and IC50 parameters were calculated in GraphPad Prism 8.0 software, using sigmoidal dose-response curve fitting with variable slope.
(ELISA stands for enzyme-linked immunosorbent assay.)

Experiment [2] has as its target T1, DDR2. Description: DDR2 binding assay (LanthaScreen Europium Kinase Binding assay). Particulars: potency class, read-out: Ki DDR2. Here is the method:
(§1) DDR1 and DDR2 binding assays were performed using Life Technologies LanthaScreen™ Europium Kinase Binding assay. The compounds were incubated with 5 nM DDR1 (Carna Biosciences) or 5 nM DDR2 (Life Technologies) for 1 hour at room temperature in white 384-well OptiPlate (PerkinElmer), containing 20 nM or 10 nM Kinase Tracer 178 respectively and 2 nM Europium labelled anti-GST antibody (Life Technologies) in assay buffer (50 mM HEPES pH 7.5, 10 mM MgCl2, 1 mM EGTA and 0.01% BRIJ35).
(§2) The ratio of fluorescence emission 665 nm/615 nm after excitation at 340 nm was obtained using the Tecan Spark 20M plate reader. IC50 values were determined in GraphPad Prism 7.0 software, using 4 parameter model: log(inhibitor) vs. response. IC50 values were converted in Ki using the Cheng-Prusoff equation (Ki=IC50/(1+[Tracer]/Kd).
On the technique in general: In TR-FRET formats the signal depends on donor and acceptor labels being close together.

The target in experiment [3] is T2, DDR1 (Homo sapiens (Human), UniProt Q08345). The experiment in a line: DDR1 cell based assay (PathHunter U2OS DDR1 assay). The settings on record: U2OS-DDR1 cells, Type II Collagen stimulation, potency class. Here is the method:
The inhibition of DDR1 receptor activation by compounds was evaluated by PathHunter® U2OS DDR1 assay (Eurofins DiscoverX), according to the manufacturer's instructions. Briefly, U2OS-DDR1 cells were seeded in white 384-well plates at a density of 5000 cells/well and incubated for 2 hours at 37° C. and 5% CO2. Cells were then treated with compounds at different concentrations and incubated for 30 minutes, before stimulation with bovine Type II Collagen 20 μg/ml and incubation overnight at 37° C. and 5% CO2. PathHunter Detection Reagents were prepared according to the protocol provided by DiscoverX and 20 μl/well of this mix were added to each well. After incubating the plates for 1 hour at room temperature in the dark, luminescence signal was acquired with a plate reader. Raw data were normalized to vehicle control (0% for normalization) and positive control (100% for normalization; cells treated with 20 μg/ml collagen II) and IC50 parameters were calculated in GraphPad Prism 8.0 software, using sigmoidal dose-response curve fitting with variable slope.

Experiment [4] deals with T2, DDR1. The experiment in a line: DDR1 binding assay (LanthaScreen Europium Kinase Binding assay). Particulars: potency class, read-out: Ki DDR1. Here is the method:
as §1, §2

Some results are limits rather than exact numbers.

T2 sequence (Q08345 19-913): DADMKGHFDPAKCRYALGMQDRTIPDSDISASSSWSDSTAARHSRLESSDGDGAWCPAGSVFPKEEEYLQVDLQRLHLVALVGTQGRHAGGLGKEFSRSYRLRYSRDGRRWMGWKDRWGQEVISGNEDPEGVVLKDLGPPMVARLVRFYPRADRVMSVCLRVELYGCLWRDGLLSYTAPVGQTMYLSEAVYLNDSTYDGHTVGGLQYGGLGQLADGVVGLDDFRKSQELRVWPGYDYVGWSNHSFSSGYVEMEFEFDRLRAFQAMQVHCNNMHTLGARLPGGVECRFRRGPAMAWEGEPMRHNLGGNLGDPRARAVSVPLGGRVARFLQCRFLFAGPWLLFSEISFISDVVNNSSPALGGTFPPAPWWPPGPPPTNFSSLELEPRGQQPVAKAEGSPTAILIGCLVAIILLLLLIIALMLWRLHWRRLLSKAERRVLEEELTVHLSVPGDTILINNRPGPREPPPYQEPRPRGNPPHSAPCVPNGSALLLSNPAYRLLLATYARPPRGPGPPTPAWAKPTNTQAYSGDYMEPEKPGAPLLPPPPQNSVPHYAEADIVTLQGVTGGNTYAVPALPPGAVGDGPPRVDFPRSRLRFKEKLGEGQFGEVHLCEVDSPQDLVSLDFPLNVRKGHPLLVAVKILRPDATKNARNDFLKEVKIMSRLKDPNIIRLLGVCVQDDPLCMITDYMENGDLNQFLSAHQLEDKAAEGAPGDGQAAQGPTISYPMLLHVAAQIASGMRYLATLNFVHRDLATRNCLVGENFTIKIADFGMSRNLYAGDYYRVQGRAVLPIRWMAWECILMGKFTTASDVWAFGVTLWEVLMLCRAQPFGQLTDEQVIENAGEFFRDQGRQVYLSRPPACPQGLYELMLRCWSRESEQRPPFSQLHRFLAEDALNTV
T1 sequence (Q16832 22-855): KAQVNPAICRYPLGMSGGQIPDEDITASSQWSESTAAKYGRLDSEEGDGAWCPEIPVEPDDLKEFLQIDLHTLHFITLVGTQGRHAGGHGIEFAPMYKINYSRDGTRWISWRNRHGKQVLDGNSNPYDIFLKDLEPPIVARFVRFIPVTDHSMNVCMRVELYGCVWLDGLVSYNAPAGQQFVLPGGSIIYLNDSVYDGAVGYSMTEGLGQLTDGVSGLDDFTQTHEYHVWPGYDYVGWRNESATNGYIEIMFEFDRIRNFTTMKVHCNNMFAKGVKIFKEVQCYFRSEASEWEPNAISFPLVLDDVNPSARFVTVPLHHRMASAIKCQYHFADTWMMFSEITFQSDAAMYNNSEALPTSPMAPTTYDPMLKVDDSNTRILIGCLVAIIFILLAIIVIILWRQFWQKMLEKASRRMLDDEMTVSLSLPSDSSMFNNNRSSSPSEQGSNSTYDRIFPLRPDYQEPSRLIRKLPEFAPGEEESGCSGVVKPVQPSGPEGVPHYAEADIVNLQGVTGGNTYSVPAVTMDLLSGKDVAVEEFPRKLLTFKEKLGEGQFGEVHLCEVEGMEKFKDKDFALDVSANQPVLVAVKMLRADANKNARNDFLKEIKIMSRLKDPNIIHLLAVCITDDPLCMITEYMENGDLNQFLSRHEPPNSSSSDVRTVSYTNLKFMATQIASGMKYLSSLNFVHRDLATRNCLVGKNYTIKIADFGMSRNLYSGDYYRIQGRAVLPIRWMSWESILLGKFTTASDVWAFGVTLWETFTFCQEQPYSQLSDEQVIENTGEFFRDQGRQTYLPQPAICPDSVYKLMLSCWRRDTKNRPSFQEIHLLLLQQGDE

As a reminder, the Ki is the dissociation constant of the complex between target and ligand, obtained from inhibition or displacement. Regarding `Nc1nccnc1CN1CCc2c(C(=O)Nc3cc(F)cc(C(F)(F)F)c3)csc2C1` [Example 46, 6-((3-aminopyrazin-2-yl)methyl)-N-(3-fluoro-5-(trifluoromethyl)phenyl)-4,5,6,7-tetrahydrothieno[2,3-c]pyridine-3-carboxamide], the IC50 in experiment [1] and in experiment [3] was under 25 nM each time. Also, the inhibition constant Ki in experiment [2] and in experiment [4] was under 25 nM throughout.

As to `O=C(Nc1cccc(C(F)(F)F)c1)c1csc2c1CCN(Cc1cncnc1)C2` [Example 5, 6-(pyrimidin-5-ylmethyl)-N-(3-(trifluoromethyl)phenyl)-4,5,6,7-tetrahydrothieno[2,3-c]pyridine-3-carboxamide], the IC50 in experiment [1] was under 25 nM; in experiment [3], 25 to 50 nM. For the same compound, the Ki in experiment [2] and in experiment [4] was under 25 nM each time.

For `CC(C)(C)c1cc(NC(=O)c2csc3c2CCN(Cc2cnc(N)nc2)C3)no1` [Example 64, 6-((2-aminopyrimidin-5-yl)methyl)-N-(5-(tert-butyl)isoxazol-3-yl)-4,5,6,7-tetrahydrothieno[2,3-c]pyridine-3-carboxamide], the IC50 in experiment [1] and in experiment [3] was under 25 nM throughout. In addition, the inhibition constant Ki in experiment [2] and in experiment [4] was under 25 nM in each case.

For the compound `O=C(Nc1cncc(C(F)(F)F)c1)c1csc2c1CCN(Cc1cncc(F)c1)C2` [Example 33, 6-((5-fluoropyridin-3-yl)methyl)-N-(5-(trifluoromethyl)pyridin-3-yl)-4,5,6,7-tetrahydrothieno[2,3-c]pyridine-3-carboxamide], the inhibition constant (Ki) in experiment [2] and in experiment [4] was under 25 nM throughout. This compound also displayed an IC50 in experiment [3] of 25 to 50 nM.

As for `CNc1ccc(CN2CCc3c(C(=O)Nc4cc(F)cc(C(F)(F)F)c4)csc3C2)cn1` [Example 48, N-[3-fluoro-5-(trifluoromethyl)phenyl]-6-[[6-(methylamino)-3-pyridyl]methyl]-5,7-dihydro-4H-thieno[2,3-c]pyridine-3-carboxamide], the Ki in experiment [2] and in experiment [4] was under 25 nM in each case. Moreover, the IC50 in experiment [3] is under 25 nM.

With `CN(C)[C@@H]1CCN(Cc2cc(NC(=O)c3csc4c3CCN(Cc3cncnc3OC3CC3)C4)cc(C(F)(F)F)c2)C1` [Example 53, (R)-6-((4-cyclopropoxypyrimidin-5-yl)methyl)-N-(3-((3-(dimethylamino)pyrrolidin-1-yl)methyl)-5-(trifluoromethyl)phenyl)-4,5,6,7-tetrahydrothieno[2,3-c]pyridine-3-carboxamide], the inhibitory constant (Ki) in experiment [2] and in experiment [4] was under 25 nM throughout. The IC50 in experiment [3] was 25 to 50 nM.

Regarding `O=C(Nc1cc(C(F)(F)F)ccc1F)c1csc2c1CCN(Cc1cncnc1)C2` [Example 11, N-(2-fluoro-5-(trifluoromethyl)phenyl)-6-(pyrimidin-5-ylmethyl)-4,5,6,7-tetrahydrothieno[2,3-c]pyridine-3-carboxamide], the Ki in experiment [2] and in experiment [4] was under 25 nM in each case. In addition, the IC50 in experiment [3] lay in the range of 50 to 80 nM.

As to `CN1CCN(c2cncc(CN3CCc4c(C(=O)Nc5cccc(C(F)(F)F)c5)csc4C3)c2)CC1=O` [Example 29, 6-((5-(4-methyl-3-oxopiperazin-1-yl)pyridin-3-yl)methyl)-N-(3-(trifluoromethyl)phenyl)-4,5,6,7-tetrahydrothieno[2,3-c]pyridine-3-carboxamide], the inhibition constant Ki in experiment [2] and in experiment [4] was under 25 nM each time. Also, in experiment [3], the IC50 lay in the range of 50 to 80 nM.

Regarding `COCCNc1ncc(CN2CCc3c(C(=O)Nc4cc(F)cc(C(F)(F)F)c4)csc3C2)cn1` [Example 41, N-(3-fluoro-5-(trifluoromethyl)phenyl)-6-((2-((2-methoxyethyl)amino)pyrimidin-5-yl)methyl)-4,5,6,7-tetrahydrothieno[2,3-c]pyridine-3-carboxamide], the inhibition constant (Ki) in experiment [2] and in experiment [4] was under 25 nM in each case. In addition, the IC50 in experiment [3] was in the range of 50 to 80 nM.

Regarding `O=C(Nc1cccc(C(F)(F)F)c1)c1csc2c1CCN(Cc1cncc(F)c1)C2` [Example 24, 6-((5-fluoropyridin-3-yl)methyl)-N-(3-(trifluoromethyl)phenyl)-4,5,6,7-tetrahydrothieno[2,3-c]pyridine-3-carboxamide], the inhibition constant (Ki) in experiment [2] and in experiment [4] was under 25 nM throughout. This compound returned an IC50 in experiment [3] of 25 to 50 nM.

Turning to `O=C(Nc1cncc(C(F)(F)F)c1)c1csc2c1CCN(Cc1cccnc1)C2` [Example 34, 6-(pyridin-3-ylmethyl)-N-(5-(trifluoromethyl)pyridin-3-yl)-4,5,6,7-tetrahydrothieno[2,3-c]pyridine-3-carboxamide], the Ki in experiment [2] and in experiment [4] was under 25 nM throughout. Also, in experiment [3], the IC50 lay within 25 to 50 nM.

On to `O=C(Nc1cccc(C(F)(F)F)c1)c1csc2c1CCN(Cc1cncc(N3CCS(=O)(=O)CC3)c1)C2` [Example 30, 6-((5-(1,1-dioxidothiomorpholino)pyridin-3-yl)methyl)-N-(3-(trifluoromethyl)phenyl)-4,5,6,7-tetrahydrothieno[2,3-c]pyridine-3-carboxamide], for which the Ki in experiment [2] and in experiment [4] was under 25 nM each time. In addition, in experiment [3], the IC50 is 50 to 80 nM.

In the case of `O=C(Nc1cc(F)cc(OC(F)F)c1)c1csc2c1CCN(Cc1cncnc1)C2` [Example 12, N-(3-(difluoromethoxy)-5-fluorophenyl)-6-(pyrimidin-5-ylmethyl)-4,5,6,7-tetrahydrothieno[2,3-c]pyridine-3-carboxamide], the inhibition constant (Ki) in experiment [2] and in experiment [4] was under 25 nM throughout. In addition, the IC50 in experiment [3] lay in the range of 25 to 50 nM.

Regarding `N#Cc1cncc(CN2CCc3c(C(=O)Nc4cccc(C(F)(F)F)c4)csc3C2)c1` [Example 19, 6-((5-cyanopyridin-3-yl)methyl)-N-(3-(trifluoromethyl)phenyl)-4,5,6,7-tetrahydrothieno[2,3-c]pyridine-3-carboxamide], the Ki in experiment [2] and in experiment [4] was under 25 nM in each case. This compound also returned an IC50 in experiment [3] of 25 to 50 nM.

Take `O=C(Nc1cc(F)cc(C(F)(F)F)c1)c1csc2c1CCN(Cc1cnc(NCCO)nc1)C2` [Example 44, N-(3-fluoro-5-(trifluoromethyl)phenyl)-6-((2-((2-hydroxyethyl)amino)pyrimidin-5-yl)methyl)-4,5,6,7-tetrahydrothieno[2,3-c]pyridine-3-carboxamide]: the Ki in experiment [2] and in experiment [4] was under 25 nM each time. The compound further had an IC50 in experiment [3] of 25 to 50 nM.

As to `O=C(Nc1cc(F)cc(C(F)(F)F)c1)c1csc2c1CCN(Cc1cnc(NC3COC3)nc1)C2` [Example 37, N-[3-fluoro-5-(trifluoromethyl)phenyl]-6-[[2-(oxetan-3-ylamino)pyrimidin-5-yl]methyl]-5,7-dihydro-4H-thieno[2,3-c]pyridine-3-carboxamide], the Ki in experiment [2] and in experiment [4] was under 25 nM in each case. In experiment [3], the IC50 lay in the range of 25 to 50 nM.

Turning to `CN(C)[C@@H]1CCN(Cc2cc(NC(=O)c3csc4c3CCN(Cc3cncc(-c5cnn(C)c5)c3)C4)cc(C(F)(F)F)c2)C1` [Example 54, (R)-N-(3-((3-(dimethylamino)pyrrolidin-1-yl)methyl)-5-(trifluoromethyl)phenyl)-6-((5-(1-methyl-1H-pyrazol-4-yl)pyridin-3-yl)methyl)-4,5,6,7-tetrahydrothieno[2,3-c]pyridine-3-carboxamide], the Ki in experiment [2] and in experiment [4] was under 25 nM in each case. In addition, in experiment [3], the IC50 fell in the range of 25 to 50 nM.

Regarding `Cc1cn(-c2cc(NC(=O)c3csc4c3CCN(Cc3cncnc3)C4)cc(C(F)(F)F)c2)cn1` [Example 3, N-(3-(4-methyl-1H-imidazol-1-yl)-5-(trifluoromethyl)phenyl)-6-(pyrimidin-5-ylmethyl)-4,5,6,7-tetrahydrothieno[2,3-c]pyridine-3-carboxamide], the Ki in experiment [2] and in experiment [4] was under 25 nM in each case. The compound further yielded an IC50 in experiment [3] of 25 to 50 nM.
